Experimental data reported in the supplement of paper PMC11451515.

System: P12-Ichikawa
Assay: cell viability relative to DMSO control; higher = less cytotoxic
Details: 48 h
Summary of the method: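 Library compounds in DMSO were pin-dosed into 1536-well plates (5 μl) holding NOMO1 or SEM (500 cells/well) or P12-Ichikawa (1000 cells/well) leukemia cells, across an 11-point threefold series of 47 μM to 0.79 nM. Each cell line had been adapted for at least four passages in each medium. CellTiter-Glo One luminescence was read after 48 h at 37°C. Viability is the per-plate percentage relative to DMSO wells, with cell-free wells as background.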

[1] = HPLM + 10% dialyzed FBS, 0.000781 µM
[2] = HPLM + 10% dialyzed FBS, 0.00234 µM
[3] = HPLM + 10% dialyzed FBS, 0.00702 µM
[4] = HPLM + 10% dialyzed FBS, 0.0211 µM
[5] = HPLM + 10% dialyzed FBS, 0.0632 µM
[6] = HPLM + 10% dialyzed FBS, 0.19 µM
[7] = HPLM + 10% dialyzed FBS, 0.569 µM
[8] = HPLM + 10% dialyzed FBS, 1.71 µM
[9] = HPLM + 10% dialyzed FBS, 5.12 µM
[10] = HPLM + 10% dialyzed FBS, 15.4 µM
[11] = HPLM + 10% dialyzed FBS, 46.1 µM
[12] = RPMI 5 mM glucose + 10% FBS, 0.000781 µM
[13] = RPMI 5 mM glucose + 10% FBS, 0.00234 µM
[14] = RPMI 5 mM glucose + 10% FBS, 0.00702 µM
[15] = RPMI 5 mM glucose + 10% FBS, 0.0211 µM
[16] = RPMI 5 mM glucose + 10% FBS, 0.0632 µM
[17] = RPMI 5 mM glucose + 10% FBS, 0.19 µM
[18] = RPMI 5 mM glucose + 10% FBS, 0.569 µM
[19] = RPMI 5 mM glucose + 10% FBS, 1.71 µM
[20] = RPMI 5 mM glucose + 10% FBS, 5.12 µM
[21] = RPMI 5 mM glucose + 10% FBS, 15.4 µM
[22] = RPMI 5 mM glucose + 10% FBS, 46.1 µM
[23] = RPMI 5 mM glucose + 10% dialyzed FBS, 0.000781 µM
[24] = RPMI 5 mM glucose + 10% dialyzed FBS, 0.00234 µM
[25] = RPMI 5 mM glucose + 10% dialyzed FBS, 0.00702 µM
[26] = RPMI 5 mM glucose + 10% dialyzed FBS, 0.0211 µM
[27] = RPMI 5 mM glucose + 10% dialyzed FBS, 0.0632 µM
[28] = RPMI 5 mM glucose + 10% dialyzed FBS, 0.19 µM
[29] = RPMI 5 mM glucose + 10% dialyzed FBS, 0.569 µM
[30] = RPMI 5 mM glucose + 10% dialyzed FBS, 1.71 µM
[31] = RPMI 5 mM glucose + 10% dialyzed FBS, 5.12 µM
[32] = RPMI 5 mM glucose + 10% dialyzed FBS, 15.4 µM
[33] = RPMI 5 mM glucose + 10% dialyzed FBS, 46.1 µM

| SMILES | cell viability [1] | cell viability [2] | cell viability [3] | cell viability [4] | cell viability [5] | cell viability [6] | cell viability [7] | cell viability [8] | cell viability [9] | cell viability [10] | cell viability [11] | cell viability [12] | cell viability [13] | cell viability [14] | cell viability [15] | cell viability [16] | cell viability [17] | cell viability [18] | cell viability [19] | cell viability [20] | cell viability [21] | cell viability [22] | cell viability [23] | cell viability [24] | cell viability [25] | cell viability [26] | cell viability [27] | cell viability [28] | cell viability [29] | cell viability [30] | cell viability [31] | cell viability [32] | cell viability [33] |
| --- | --- | --- | --- | --- | --- | --- | --- | --- | --- | --- | --- | --- | --- | --- | --- | --- | --- | --- | --- | --- | --- | --- | --- | --- | --- | --- | --- | --- | --- | --- | --- | --- | --- |
| O=C1Nc2ccccc2/C1=C1\Nc2ccccc2C1=O | 106% | 106% | 109% | 102% | 104% | 101% | 104% | 103% | 94.9% | 104% | 97.9% | 101% | 111% | 103% | 105% | 110% | 108% | 104% | 104% | 95.9% | 99.7% | 98% | 99.3% | 102% | 105% | 91.2% | 104% | 97.1% | 106% | 94.9% | 93.1% | 102% | 83.4% |
| O=C1NC(=O)[C@@H](c2cn3c4c(cccc24)CCC3)[C@@H]1c1c[nH]c2ccccc12 | 99% | 96.4% | 103% | 98.7% | 105% | 103% | 93.8% | 56% | 23.3% | 20.7% | 18.5% | 93.1% | 111% | 102% | 107% | 107% | 102% | 90.9% | 48.4% | 11.9% | 17.9% | 14.3% | 105% | 105% | 99.9% | 111% | 117% | 113% | 109% | 78% | 34.6% | 30% | 33.1% |
| O=C(O)c1ccccc1C(=O)Nc1ccc(-c2ccccc2)cc1 | 123% | 118% | 128% | 124% | 128% | 125% | 123% | 119% | 122% | 114% | 108% |  |  |  |  |  |  |  |  |  |  |  | 119% | 123% | 124% | 124% | 138% | 123% | 119% | 124% | 117% | 130% | 113% |
| O=C(O)[C@H](Cc1c[nH]c2ccccc12)N1C(=O)c2ccccc2C1=O | 98.3% | 109% | 104% | 106% | 99.5% | 99.8% | 105% | 110% | 103% | 102% | 99.3% | 89.6% | 91.9% | 91.3% | 93.4% | 98.3% | 103% | 103% | 97% | 101% | 101% | 94.3% | 91.2% | 90.5% | 91.8% | 102% | 94.4% | 99.5% | 99% | 105% | 95% | 98.6% | 92.2% |
| CCCCCCCCCCCC(CC1OC(=O)C1CCCCCC)OC(=O)C(CC(C)C)NC=O (centres undefined) | 98.6% | 110% | 110% | 105% | 111% | 107% | 119% | 107% | 105% | 84.2% | 3.42% | 105% | 117% | 114% | 120% | 118% | 114% | 114% | 114% | 103% | 85.8% | 10.6% | 101% | 107% | 103% | 108% | 117% | 112% | 116% | 112% | 99.3% | 87.2% | 7.97% |
| CC[C@H]1OC(=O)[C@H](C)[C@@H](O[C@H]2C[C@@](C)(OC)[C@@H](O)[C@H](C)O2)[C@H](C)[C@@H](O[C@@H]2O[C@@H](C)C[C@H](N(C)C)[C@H]2O)[C@](C)(O)C[C@@H](C)C(=O)[C@H](C)[C@@H](O)[C@]1(C)O | 83.8% | 88.3% | 94.6% | 98.3% | 91.2% | 89.9% | 97.9% | 94.6% | 84% | 57.4% | 18.4% | 84.9% | 87% | 85.6% | 91.3% | 87.6% | 90% | 91.7% | 87.8% | 87.3% | 91.8% | 13.6% | 88.4% | 84.3% | 88.7% | 91.8% | 84.1% | 93.4% | 89.3% | 92.9% | 89.8% | 88.4% | 28% |
| COc1cc2c(N3CCN(C(=O)Nc4ccc(OC(C)C)cc4)CC3)ncnc2cc1OCCCN1CCCCC1 | 88.6% | 92.6% | 87.4% | 97.5% | 91.3% | 91.6% | 92.3% | 90% | 86% | 58% | 43.4% | 84.3% | 74.1% | 80% | 92.5% | 86.3% | 72.8% | 78.9% | 80.1% | 77.4% | 42.9% | 48.1% | 79.5% | 86.9% | 84.7% | 83% | 81.1% | 82.2% | 83.6% | 79% | 84.6% | 38.1% | 56% |
| Cl.c1cnc2cc3c(cc2n1)C1CNCC3C1 | 108% | 111% | 114% | 114% | 119% | 114% | 117% | 122% | 114% | 114% | 106% | 106% | 115% | 121% | 117% | 122% | 117% | 127% | 118% | 127% | 130% | 130% | 106% | 113% | 112% | 116% | 123% | 114% | 121% | 123% | 121% | 116% | 120% |
| Cc1ccc(NC(=O)c2ccc(CN3CCN(C)CC3)cc2)cc1Nc1nccc(-c2cccnc2)n1 | 93.8% | 95.7% | 105% | 97.9% | 113% | 103% | 112% | 109% | 110% | 109% | 92.7% | 98.2% | 107% | 101% | 96.5% | 115% | 113% | 114% | 109% | 103% | 105% | 100% | 102% | 107% | 108% | 111% | 109% | 113% | 115% | 104% | 97.6% | 112% | 106% |
| COc1cc(N2CCC(C(N)=O)CC2)ccc1Nc1nc(N)c(Cl)c(Nc2ccccc2[S+](=O)([O-])C(C)C)n1 | 88.6% | 97.4% | 102% | 95.2% | 111% | 106% | 108% | 104% | 96.9% | 84.1% | 3.45% | 81.9% | 102% | 101% | 107% | 103% | 98.1% | 99.9% | 95.9% | 77.8% | 64.6% | 2.33% | 91.3% | 104% | 98.8% | 94.7% | 103% | 97.9% | 100% | 88% | 74.9% | 54.9% | 4.65% |
| CNC(=O)[C@H](Cc1ccccc1)NC(=O)[C@H](CC(C)C)[C@H](CSc1cccs1)C(=O)NO | 86.3% | 86.4% | 86.3% | 98.3% | 87.4% | 95.1% | 89.7% | 82.9% | 81.9% | 73.8% | 66.8% | 83.3% | 87.2% | 78.9% | 87% | 78% | 82.8% | 88.1% | 82.9% | 71% | 59.2% | 52.6% | 85.3% | 89.7% | 82.2% | 88.3% | 84.3% | 91% | 90.1% | 79.5% | 72.5% | 63.5% | 53% |
| O=C(NC1CCOCC1)c1ccc(-c2cc(-c3c[nH]nc3-c3ccccn3)ccn2)cc1 | 104% | 103% | 110% | 104% | 111% | 108% | 109% | 96.6% | 98.3% | 92.4% | 104% | 104% | 109% | 110% | 109% | 109% | 94.1% | 98.4% | 85.7% | 99.9% | 97.8% | 99.9% | 114% | 109% | 103% | 105% | 103% | 102% | 96% | 105% | 88.4% | 97.5% | 89.8% |
| ClC1=CC=C(CCCOC/2=N/NC(=O)C(=C2NCC3=CN=CC=C3)/Br)C=C1 | 115% | 115% | 113% | 117% | 118% | 110% | 104% | 95.5% | 61.6% | 35.7% | 14.4% | 109% | 114% | 110% | 122% | 125% | 124% | 113% | 112% | 96.3% | 69.6% | 38.5% | 113% | 115% | 116% | 110% | 110% | 115% | 106% | 90.4% | 56.7% | 26.9% | 13.7% |
| C#CCN(C)[C@H](C)Cc1ccccc1 | 92.5% | 93.5% | 93.7% | 89.8% | 106% | 93% | 73.2% | 89.5% | 92.7% | 80.1% | 88.3% | 82.9% | 82.3% | 88.9% | 83.7% | 92.2% | 92.7% | 89.3% | 82.8% | 81.5% | 87.9% | 89% | 79.3% | 88.6% | 83.1% | 86.5% | 83.8% | 88.3% | 93.5% | 82% | 80.9% | 80.2% | 79.5% |
| Fc1ccc(C(c2ccc(F)cc2)N2CCN(C/C=C/c3ccccc3)CC2)cc1 | 110% | 121% | 111% | 109% | 109% | 114% | 108% | 108% | 103% | 99.1% | 96.5% | 118% | 112% | 109% | 121% | 116% | 119% | 112% | 107% | 110% | 106% | 104% | 113% | 104% | 121% | 109% | 102% | 110% | 114% | 106% | 104% | 98% | 95.2% |
